Assay results: patent US20210198277A1, “AMINE-SUBSTITUTED ARYL OR HETEROARYL COMPOUNDS” (Epizyme, Inc., priority 2016, published 2021)

molecular target: T1, EHMT1 (Homo sapiens, UniProt Q9H9B1); experiment: EHMT1 enzyme assay on peptide substrate (EHMT1 PEP); assay type: biochemical; settings: Table VII; read-out: EHMT1 PEP IC50
T1 sequence (Q9H9B1 1-1298): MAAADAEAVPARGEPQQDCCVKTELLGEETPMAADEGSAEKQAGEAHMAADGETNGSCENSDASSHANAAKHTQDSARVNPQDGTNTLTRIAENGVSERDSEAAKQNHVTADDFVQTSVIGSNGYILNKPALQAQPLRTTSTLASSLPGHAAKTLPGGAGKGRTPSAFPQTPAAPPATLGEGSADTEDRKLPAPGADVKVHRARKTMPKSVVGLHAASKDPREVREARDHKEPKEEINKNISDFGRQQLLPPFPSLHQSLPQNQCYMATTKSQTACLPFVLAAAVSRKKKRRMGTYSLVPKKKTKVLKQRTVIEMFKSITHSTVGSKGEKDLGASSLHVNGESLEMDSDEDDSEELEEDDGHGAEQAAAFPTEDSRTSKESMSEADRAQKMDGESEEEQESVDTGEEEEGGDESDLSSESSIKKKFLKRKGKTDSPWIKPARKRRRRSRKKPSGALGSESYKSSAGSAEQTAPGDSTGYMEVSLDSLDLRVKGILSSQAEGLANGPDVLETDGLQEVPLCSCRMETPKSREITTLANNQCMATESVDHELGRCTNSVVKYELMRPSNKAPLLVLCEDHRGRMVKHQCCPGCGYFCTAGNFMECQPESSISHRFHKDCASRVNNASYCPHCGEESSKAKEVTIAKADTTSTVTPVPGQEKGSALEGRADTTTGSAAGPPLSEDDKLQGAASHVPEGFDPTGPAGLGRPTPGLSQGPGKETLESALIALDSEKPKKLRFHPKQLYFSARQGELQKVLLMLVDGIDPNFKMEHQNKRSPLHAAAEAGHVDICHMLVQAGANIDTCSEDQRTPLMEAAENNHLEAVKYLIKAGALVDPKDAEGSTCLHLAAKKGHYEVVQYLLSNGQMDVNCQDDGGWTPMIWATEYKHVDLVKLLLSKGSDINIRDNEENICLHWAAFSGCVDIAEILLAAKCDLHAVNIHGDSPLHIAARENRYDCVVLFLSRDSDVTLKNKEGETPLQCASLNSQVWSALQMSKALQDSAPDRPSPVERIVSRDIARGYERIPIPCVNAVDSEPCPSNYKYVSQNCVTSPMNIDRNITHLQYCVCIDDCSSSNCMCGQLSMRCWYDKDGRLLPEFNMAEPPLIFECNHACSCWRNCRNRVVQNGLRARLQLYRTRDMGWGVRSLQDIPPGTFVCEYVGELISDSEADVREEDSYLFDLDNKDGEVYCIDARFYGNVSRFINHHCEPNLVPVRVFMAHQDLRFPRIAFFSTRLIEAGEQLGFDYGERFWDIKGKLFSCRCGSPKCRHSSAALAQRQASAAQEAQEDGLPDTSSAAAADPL

Row | IC50 | SMILES
1 | < 0.1 µM | CNc1cc(C)nc(Nc2cnc(OC)c(CNCCN3CCC3)c2)n1 [Compound 1110]
2 | < 0.1 µM | CNc1cc(C2CCOCC2)c2cc(OC)c(CNCCN3CCCC3)cc2n1 [Compound 1111]
3 | < 0.1 µM | CNc1cc(C2CCOCC2)c2cc(OC)c(OC[C@H](O)CN3CCC3)cc2n1 [Compound 1108]
4 | 1 to 10 µM | CNc1ccnc(Nc2ccc(OC)c(OC[C@@H](O)CN3CCC3)c2)n1 [Compound 1046]
5 | < 0.1 µM | CCN(C)C[C@@H](O)COc1cc(Nc2nc(C)cc(NC)n2)ccc1OC [Compound 1113]

same assay, conditions: read-out: EHMT1 PEP (IC50 μM)

Row | SMILES | IC50
6 | CNc1cc(C)nc(Nc2ccc(OC)c(OCC3CCN(C4CCCC4)C3)c2)n1 (centres unmarked) [Compound 456, N^2-(3-((1-cyclopentylpyrrolidin-3-yl)methoxy)-4-methoxyphenyl)-N^4,6-dimethylpyrimidine-2,4-diamine] | 1 to 10 µM
7 | COc1cnc(Nc2nccc3[nH]ccc23)cc1OCCCN1CC2CC2C1 (centres unmarked) [Compound 507] | < 0.1 µM
8 | CNc1cc(C)nc(Nc2ccc(OC)c(OC[C@H]3CCCN(C4CC4)C3)c2)n1 [Compound 517b] | 0.1 to 1 µM
9 | CNc1ccnc(Nc2ccc(OC)c(OCc3ncn(C4CC4)n3)c2)n1 [Compound 480] | > 10 µM
10 | COc1ccc(Nc2nc(C)cc(NCC3CCOCC3)n2)cc1OCC1CCN(C2CC2)C1 (centres unmarked) [Compound 462, N^2-(3-((1-cyclopropylpyrrolidin-3-yl)methoxy)-4-methoxyphenyl)-6-methyl-N^4-((tetrahydro-2H-pyran-4-yl)methyl)pyrimidine-2,4-diamine] | < 0.1 µM
11 | COc1cnc(Nc2nc(C)cc3[nH]ccc23)cc1OCC1CCN(C2CC2)C1 (centres unmarked) [Compound 494] | < 0.1 µM
12 | CNc1cc(C)nc(Nc2ccc(OC)c(OC3CCN(C)CC3)c2)n1 [Compound 455] | > 10 µM
13 | CNc1cc(C)nc(Nc2ccc(OC)c(OCCCCN(C)C)c2)n1 [Compound 502] | 0.1 to 1 µM
14 | CNc1cc(C)nc(Nc2ccc(OC)c(OCCCN3CCC4(CC4)C3)c2)n1 [Compound 498, N^2-(3-(3-(5-azaspiro[2.4]heptan-5-yl)propoxy)-4-methoxyphenyl)-N^4,6-dimethylpyrimidine-2,4-diamine] | 0.1 to 1 µM
15 | CNc1cc(C)nc(Nc2ccc(OC)c(OC(C#N)CCN3CCCC3)c2)n1 (centres unmarked) [Compound 489] | 0.1 to 1 µM
16 | CNc1cc(C2CCCC2)nc(Nc2ccc(OC)c(OCCCN3CCCC3)c2)n1 [Compound 458, 6-cyclopentyl-N^2-(4-methoxy-3-(3-(pyrrolidin-1-yl)propoxy)phenyl)-N^4-methylpyrimidine-2,4-diamine] | 0.1 to 1 µM
17 | CNc1cc(C)nc(Nc2ccc(OC)c(OCC3CN(C4CC4)C3)c2)n1 [Compound 510] | < 0.1 µM
18 | COc1cnc(Nc2nc(C)cc3[nH]c(C)cc23)cc1OCCCN1CCCC1 [Compound 485] | < 0.1 µM

Continued, values first:

Row | IC50 | SMILES
19 | < 0.1 µM | COc1cc2c(C3CCN(C)CC3)nc(N3CCCC3)nc2cc1OCCCN1CCCC1 [Compound 527]
20 | 1 to 10 µM | CNc1nc(C2CC(C)(C)NC(C)(C)C2)c2cc(OC)c(OCCCN3CCCC3)cc2n1 [Compound 534]
21 | 1 to 10 µM | CNc1nc(C2CCOCC2)c2cc(OC)c(OCCCN3CCCC3)cc2n1 [Compound 521]
22 | 0.1 to 1 µM | COc1cc2c(C3CCN(C)CC3)nc(N3CCC(F)(F)CC3)nc2cc1OCCCN1CCCC1 [Compound 528]
23 | < 0.1 µM | CNc1nc(C2CCNCC2)c2cc(OC)c(OCCCN3CCCC3)cc2n1 [Compound 520]
24 | < 0.1 µM | CNc1nc(C2CCN(C(C)C)CC2)c2cc(OC)c(OC[C@@H]3CCN(C4CC4)C3)cc2n1 [Compound 526]
25 | < 0.1 µM | CNc1cc(C2CCN(C)CC2)c2cc(OC)c(OCCCN3CCCC3)cc2n1 [Compound 535]
26 | 1 to 10 µM | CNc1nc(C2CCN(C(C)=O)CC2)c2cc(OC)c(OCCCN3CCCC3)cc2n1 [Compound 519]
